The record followed here is publication PMC5626787, “Mouse Nudt13 is a Mitochondrial Nudix Hydrolase with NAD(P)H Pyrophosphohydrolase Activity” (The Protein Journal, 2017).

SMILES strings stand for the structures.

This test has as its target T1, Nudt13 (Mus musculus, UniProt Q8JZU0).
T1 construct: baculovirus, High Five insect cells
T1 sequence (Q8JZU0 1-352): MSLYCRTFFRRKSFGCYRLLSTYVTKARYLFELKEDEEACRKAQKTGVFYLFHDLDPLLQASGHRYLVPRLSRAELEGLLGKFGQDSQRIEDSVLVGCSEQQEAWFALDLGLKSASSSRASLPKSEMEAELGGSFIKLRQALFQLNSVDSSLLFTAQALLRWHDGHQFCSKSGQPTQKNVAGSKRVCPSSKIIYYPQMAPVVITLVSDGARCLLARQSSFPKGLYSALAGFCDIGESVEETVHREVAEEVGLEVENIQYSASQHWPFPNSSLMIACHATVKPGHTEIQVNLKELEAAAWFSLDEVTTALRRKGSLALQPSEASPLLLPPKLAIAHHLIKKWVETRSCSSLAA
The test is described as follows: HPLC product analysis, non-linear regression, Michaelis-Menten. It is filed as biochemical. As to conditions: 2 mM Mn2+, 50 mM Tris-HCl pH 8.0, 1 mM dithiothreitol, 37 °C; hydrolysis to NMNH and AMP. The procedure: HPLC product analysis, non-linear regression, Michaelis-Menten on Nudt13 | K m and k cat values were determined for NADH under optimal assay conditions

A word on the Km: it is the concentration of substrate that gives half-maximal velocity. In the case of `NC(=O)C1=CN([C@@H]2O[C@H](COP(=O)(O)OP(=O)(O)OC[C@H]3O[C@@H](n4cnc5c(N)ncnc54)[C@H](O)[C@@H]3O)[C@@H](O)[C@H]2O)C=CC1` [NADH], the Km is 340 µM.
